Test results published in patent publication US6656957B1, “Pyridine derivatives” (Novartis AG, priority 1998, dated 2003).
Like-named read-outs stand apart in the source and are kept apart here.

How the values were obtained:
[1] = system: electroshock induced convulsion; experiment: electroshock induced convulsion model; assay type: in vivo; conditions: ip, read-out: anticonvulsive activity ED50
Procedure: At doses of about 10 to 100 mg/kg i.p. or p.o. with pretreatment times of 15 min. to 8 hours, the agents of the invention show anticonvulsive activity in the electroshock induced convulsion model [cf. E. A. Swinyard, J. Pharm. Assoc. Scient. Ed. 38, 201 (1949) and J. Pharmacol. Exptl. Therap. 106, 319 (1952)].
(§1) Preferred compounds for the above mentioned indications include (3-{2-[2-trans-(3,5-dichlorophenyl)-vinyl]-6-methyl-pyridin-3-yloxy}-propyl)-dimethylamine (A), 2-methyl-6-styryl-pyridine (B), 2-(3-fluoro-phenylethynyl)-6-methyl-pyridine (C) and 2-(4-ethoxy-3-trifluoromethyl-phenylethynyl)-6-methyl-pyridine (D).

FCA induced hyperalgesia = experiment: Freund complete adjuvant (FCA) induced hyperalgesia model; assay type: in vivo; conditions: po; post-treatment time 3 hours; read-out: reversal of the hyperalgesia ED50
Procedure: At doses of about 4 to about 40 mg/kg p.o., the agents of the invention show reversal of Freund complete adjuvant (FCA) induced hyperalgesia [cf. J. Donnerer et al., Neuroscience 49, 693-698 (1992) and C. J. Woolf, Neuroscience 62, 327-331 (1994)].
as §1

Cc1cccc(C=Cc2ccccc2)n1 [B, 2-methyl-6-styryl-pyridine]
ED50 ([1]; pretreatment time 15 min.): 35 mg/kg

CCOc1ccc(C#Cc2cccc(C)n2)cc1C(F)(F)F [D, 2-(4-ethoxy-3-trifluoromethyl-phenylethynyl)-6-methyl-pyridine]
ED50 (FCA induced hyperalgesia): 19 mg/kg

Cc1cccc(C#Cc2cccc(F)c2)n1 [C, 2-(3-fluoro-phenylethynyl)-6-methyl-pyridine]
melting point: 26 to 28 °C | ED50 (FCA induced hyperalgesia): 4.2 mg/kg

Cc1ccc(OCCCN(C)C)c(/C=C/c2cc(Cl)cc(Cl)c2)n1 [A, (3-{2-[2-trans-(3,5-dichlorophenyl)-vinyl]-6-methyl-pyridin-3-yloxy}-propyl)-dimethylamine]
ED50 ([1]; pretreatment time 4 hours): 30 mg/kg
